Values quoted from earlier work, collected in patent EP0514015A1, “Control of sex differentiation in fish” (MERCK & CO. INC., priority 1991, dated 1992).

Key:
Oreochromis aureus = conditions: tilapia, broad range of doses, fed to 3 to 5-day old fry for a period of 22 days
Cyprinus carpio = conditions: carp, oral administration at 50ppm in feed from weeks 6 through 11 after hatching

Compound	sex-reversing (Oreochromis aureus)	phenotypic males (Cyprinus carpio)
C#C[C@]1(O)CC[C@H]2[C@@H]3CCC4=CC(=O)CC[C@]4(C)[C@H]3CC[C@@]21C [17-alpha-ethynyltestosterone]	effective	–
C[C@]12CCC(=O)C=C1CC[C@@H]1[C@@H]2CC[C@@]2(C)[C@H]1CC[C@]2(C)O [17-alpha-methyltestosterone]	effective	greater than 90%
